Entries after “also recorded” stand apart in the source; their conditions may differ. Each block holds one compound with its values, some of them ahead of it.
How the values were obtained:
[1] = Total serum fatty acid concentrations in dolphins fed modified fish diet; settings: for Total serum fatty acid concentration: case dolphins fed modified diet (n = 20); for concentration at 0 month / concentration at 1 month / concentration at 3 month / concentration at 6 month: bottlenose dolphin (Tursiops truncatus)
Protocol: This study examined the impact on inflammation by modifying fatty acid profiles through the diet in 20 MMP dolphins (“Group A dolphins”). The dolphins lived in netted enclosures within San Diego Bay. […] On blood collection days, Group A dolphins were fed one-third of their daily diet in the morning after their routine overnight fast and 2h postprandial, in-water, and trained blood samples were drawn (typically near 10:00 a.m.). An additional ten MMP dolphins (“Group B dolphins”) were maintained on the baseline capelin diet throughout the study period.
Two hour post-prandial samples were collected from Group A and Group B dolphins at baseline (month 0) and at three time points following the switch to the modified diet: months 1, 3, and 6. Dolphins were assessed for changes in serum fatty acid concentrations (total and various forms) and indices of inflammation, including erythrocyte sedimentation rate and alkaline phosphatase.
Blood was collected into BD Vacutainer serum separator tubes (for serum fatty acid profiles) or an evacuated tube containing EDTA (K3). Serum separator tubes were centrifuged at 3000 rpm for 10 minutes within 30 to 60 minutes of collection and chilled during processing until shipment. Serum was transferred to cryovials and stored at −80° C. until shipment on dry ice via overnight courier to the reference laboratories.
Total serum fatty acid profiles were performed by the Genetics Laboratories at the Kennedy Krieger Institute. […] Each run was required to pass clinical laboratory quality control before the data were released. […] Percent fatty acids in serum was used as a sturdier index to help reduce potential variability in serum among study dolphins.
Statistical analyses were conducted using World Programming System software (World Programming Ltd., Hampshire, United Kingdom). Significance was defined as a P value less than or equal to 0.05. Mean daily dietary intake of individual fatty acids were compared between pre-study and in-study diets for Group A and Group B dolphins using Wilcoxon rank sum tests. Indices of inflammation (erythrocyte sedimentation rate and alkaline phosphatase) and serum fatty acid concentrations (total and individual classes) from Month 1, 3, and 6 were compared with Month 0 for Group A and Group B dolphins using repeated measures ANOVA (MIXED model). […] Fatty acids that were independent predictors of erythrocyte sedimentation rate were then tested for linear associations with erythrocyte sedimentation rate using simple linear regressions. Fatty acids that were independent predictors of erythrocyte sedimentation rate and had inverse linear associations with these indices (defined as a P value less than or equal to 0.05 and an R^2 greater than or equal to 0.1), were characterized as fatty acids that independently predicted improved inflammation.

[2] = Serum fatty acid form concentrations (complex lipidomics) in dolphins fed modified fish diet; assay type: in vivo; settings: bottlenose dolphin (Tursiops truncatus), case dolphins fed modified diet (n = 20), read-out: Serum concentration, FFA (free fatty acid) form; for concentration at 0 month: Month 0 (baseline); for concentration at 1 month: Month 1; for concentration at 3 month: Month 3; for concentration at 6 month: Month 6
Protocol: Determination of serum fatty acid concentrations, including a variety of fatty acid classes, were performed by Metabolon, Inc. (Durham, N.C.) using complex lipidomics. […] The extracts were concentrated under nitrogen and reconstituted in 0.25 mL of dichloromethane:methanol (50:50) containing 10 mM ammonium acetate. The extracts were placed in vials for infusion-MS analyses, performed on a SelexION equipped Sciex 5500 QTRAP using both positive and negative mode electrospray. Each sample was subjected to 2 analyses, with IMS-MS conditions optimized for lipid classes monitored in each analysis. The 5500 QTRAP was operated in MRM mode to monitor the transitions for over 1,100 lipids from up to 14 lipid classes. Individual lipid species were quantified based on the ratio of signal intensity for target compounds to the signal intensity for an assigned internal standard of known concentration. Lipid class concentrations were calculated from the sum of all molecular species within a class, and fatty acid compositions were determined by calculating the proportion of individual fatty acids within each class.

[3] = system: erythrocyte sedimentation rate; test: Regression of serum fatty acid forms against erythrocyte sedimentation rate in dolphins on modified diet; assay type: in vivo, bottlenose dolphin (Tursiops truncatus); settings: for Serum hexosylceramide concentration resulting in erythrocyte sedimentation rates lower than 15 mm/hr (threshold effect): FIGS. 3A-3B
[4] = system: IL-6, IL-18, and MCP-1; test: Serum adipokines (cytokines) in high fat diet induced obese mice after daily oral C15:0; assay type: in vivo, C57BL/6J mice; settings: obese HFD mice
Protocol: (§1) This study examined the impact of daily oral administration of synthetic pentadecanoic acid (C15:0) on inflammation in an obese mouse model. Twenty C57BL/6J mice were fed a high fat diet (HFD) (D12492, 60% kcals fat) for 8 weeks. Study mice were then divided into the following two groups of ten: vehicle controls and C15:0-treated (5 mg/kg body weight). The predicted therapeutic dose of 5 mg/kg was based upon modified diet studies in the dolphin model.

[5] = Tolerability, body weight and food intake in high fat diet obese mice given C15:0; assay type: in vivo
Protocol: as §1
Mice in the C15:0 treatment group tolerated the test article throughout the study. […] No changes were found in body weight, percent body weight change, or food intake when comparing the study groups (not shown).

[6] = Month 0 (baseline), 2h postprandial

SMILES: CCCCCCCCCCCCCCC(=O)O [C15:0, pentadecanoic acid]
Total serum fatty acid concentration ([1]; Month 1, 2h postprandial): 94 ± 33 µM
concentration at 0 month ([2]; serum, oral): 3.8 ± 1.3 µM
concentration at 1 month ([2]; serum, oral): 4.2 ± 1.5 µM
concentration at 3 month ([2]; serum, oral): 3.6 ± 0.8 µM
concentration at 6 month ([2]; serum, oral): 3.8 ± 1.3 µM
Serum cholesterol ester concentration resulting in erythrocyte sedimentation rates lower than 15 mm/hr (threshold effect) ([3]; FIGS. 2A-2B): greater than 60 uM
Serum IL-6 ([4]; 5 mg/kg daily gastric gavage, Day 84 (n = 10), vehicle control 60 ± 68): 19 ± 11
Serum MCP-1 ([4]; 5 mg/kg daily gastric gavage, Day 84 (n = 10), vehicle control 83 ± 31): 52 ± 25
Serum IL-18 ([4]; 5 mg/kg daily gastric gavage, Day 84 (n = 10), vehicle control 206 ± 84): 101 ± 86
Inflammation and adipokines (IL-6, IL-18, and MCP-1) compared to vehicle controls ([4]; 5 mg/kg daily oral, 12 weeks, 5 mg/kg): lower; also recorded: reduced
Early mortalities in treated group ([5]; mouse, in vivo, 5 mg/kg): no early mortalities
Tolerability of the test article ([5]; mouse, in vivo, 5 mg/kg): tolerated
Body weight, percent body weight change, or food intake vs control group ([5]; obese HFD mice, 5 mg/kg daily gastric gavage, 12 weeks): No changes

SMILES: CCCCCCCCCCCCCCCC(=O)O [C16:0, palmitic acid]
Total serum fatty acid concentration [1, 6]: 1445 ± 194 µM
Total serum fatty acid concentration ([1]; Month 1, 2h postprandial): 1372 ± 199 µM
Total serum fatty acid concentration ([1]; Month 3, 2h postprandial): 1505 ± 221 µM
Total serum fatty acid concentration ([1]; Month 6, 2h postprandial): 1450 ± 155 µM

Total serum fatty acid concentration ([1]; Month 1, 2h postprandial): 82 ± 21 µM
SMILES: CCCCCCCCCCCCCCCCC(=O)O [C17:0, heptadecanoic acid]
Serum phosphatidylcholine concentration resulting in erythrocyte sedimentation rates lower than 15 mm/hr (threshold effect) ([3]; FIGS. 2A-2B): greater than 30 uM

concentration at 0 month ([1]; in vivo): 94 ± 22 µM
concentration at 1 month ([1]; in vivo): 87 ± 17 µM
concentration at 3 month ([1]; in vivo): 98 ± 17 µM
concentration at 6 month ([1]; in vivo): 96 ± 15 µM
concentration at 0 month ([2]; in vivo): 6.6 ± 2.5 µM
concentration at 1 month ([2]; in vivo): 4.4 ± 1.4 µM
concentration at 3 month ([2]; in vivo): 5 ± 2.3 µM
concentration at 6 month ([2]; in vivo): 17 ± 10 µM
SMILES: CCCCCCCCCCCCCCCCCCCC(=O)O [C20:0, arachidic acid]
Serum hexosylceramide concentration resulting in erythrocyte sedimentation rates lower than 15 mm/hr (threshold effect) [3]: greater than 0.20 uM

SMILES: CCCCCCCCCCCCCCCCCCCCCC(=O)O [C22:0, behenic acid]
Total serum fatty acid concentration [1, 6]: 23 ± 4 µM
Total serum fatty acid concentration ([1]; Month 1, 2h postprandial): 21 ± 3 µM
Total serum fatty acid concentration ([1]; Month 3, 2h postprandial): 23 ± 3 µM
Total serum fatty acid concentration ([1]; Month 6, 2h postprandial): 24 ± 5 µM
Serum hexosylceramide concentration resulting in erythrocyte sedimentation rates lower than 15 mm/hr (threshold effect) [3]: greater than 0.11 uM

concentration at 0 month ([1]; serum, oral): 18 ± 3 µM
concentration at 1 month ([1]; serum, oral): 17 ± 3 µM
concentration at 3 month ([1]; serum, oral): 18 ± 3 µM
concentration at 6 month ([1]; serum, oral): 18 ± 3 µM
SMILES: CCCCCCCCCCCCCCCCCCCCCCCC(=O)O [C24:0, lignoceric acid]

SMILES: CCCCCCCCCCCCCCCCCCCCCCCCCC(=O)O [C26:0]
Total serum fatty acid concentration [1, 6]: 1.0 ± 0.1 µM
Total serum fatty acid concentration ([1]; Month 1, 2h postprandial): 0.8 ± 0.1 µM
Total serum fatty acid concentration ([1]; Month 3, 2h postprandial): 0.9 ± 0.1 µM
Total serum fatty acid concentration ([1]; Month 6, 2h postprandial): 0.9 ± 0.1 µM
